In US20200376005A1, “SHIP INHIBITION TO COMBAT OBESITY” (THE RESEARCH FOUNDATION FOR THE STATE UNIVERSITY OF NEW YORK, priority 2013, published 2020):
“Also recorded” adds a separate entry of the source.

Key:
MIR cell = MIR cell induction in treated mice; conditions: in vivo; for concentration inducing a comparable MIR cell increase: mice
Method: [Moto bene: DRV-IV-26=3A5AS].
The solubility of 3AC was assessed by calculating the distribution coefficient (CLogD). This calculation estimates the CLogD for 3AC at 7.17 indicating the molecule is very lipophilic. Thus, we have begun to develop novel 3AC analogs with increased aqueous solubility. One of these compounds, 3A5AS, has a CLogD of 3.33. Lipinski's rules (a common measure of small molecule pharmacokinetics) recommend a ClogD of <5 for in vivo applications.

SHIP1 = molecular target: T1, SHIP1 (Homo sapiens, UniProt Q92835); experiment: SHIP1 Malachite Green phosphatase assay; type: biochemical; conditions: for SHIP1 inhibitory activity (in words): Malachite Green phosphate release assay, compared with 3AC
T1 sequence (Q92835 1-1189): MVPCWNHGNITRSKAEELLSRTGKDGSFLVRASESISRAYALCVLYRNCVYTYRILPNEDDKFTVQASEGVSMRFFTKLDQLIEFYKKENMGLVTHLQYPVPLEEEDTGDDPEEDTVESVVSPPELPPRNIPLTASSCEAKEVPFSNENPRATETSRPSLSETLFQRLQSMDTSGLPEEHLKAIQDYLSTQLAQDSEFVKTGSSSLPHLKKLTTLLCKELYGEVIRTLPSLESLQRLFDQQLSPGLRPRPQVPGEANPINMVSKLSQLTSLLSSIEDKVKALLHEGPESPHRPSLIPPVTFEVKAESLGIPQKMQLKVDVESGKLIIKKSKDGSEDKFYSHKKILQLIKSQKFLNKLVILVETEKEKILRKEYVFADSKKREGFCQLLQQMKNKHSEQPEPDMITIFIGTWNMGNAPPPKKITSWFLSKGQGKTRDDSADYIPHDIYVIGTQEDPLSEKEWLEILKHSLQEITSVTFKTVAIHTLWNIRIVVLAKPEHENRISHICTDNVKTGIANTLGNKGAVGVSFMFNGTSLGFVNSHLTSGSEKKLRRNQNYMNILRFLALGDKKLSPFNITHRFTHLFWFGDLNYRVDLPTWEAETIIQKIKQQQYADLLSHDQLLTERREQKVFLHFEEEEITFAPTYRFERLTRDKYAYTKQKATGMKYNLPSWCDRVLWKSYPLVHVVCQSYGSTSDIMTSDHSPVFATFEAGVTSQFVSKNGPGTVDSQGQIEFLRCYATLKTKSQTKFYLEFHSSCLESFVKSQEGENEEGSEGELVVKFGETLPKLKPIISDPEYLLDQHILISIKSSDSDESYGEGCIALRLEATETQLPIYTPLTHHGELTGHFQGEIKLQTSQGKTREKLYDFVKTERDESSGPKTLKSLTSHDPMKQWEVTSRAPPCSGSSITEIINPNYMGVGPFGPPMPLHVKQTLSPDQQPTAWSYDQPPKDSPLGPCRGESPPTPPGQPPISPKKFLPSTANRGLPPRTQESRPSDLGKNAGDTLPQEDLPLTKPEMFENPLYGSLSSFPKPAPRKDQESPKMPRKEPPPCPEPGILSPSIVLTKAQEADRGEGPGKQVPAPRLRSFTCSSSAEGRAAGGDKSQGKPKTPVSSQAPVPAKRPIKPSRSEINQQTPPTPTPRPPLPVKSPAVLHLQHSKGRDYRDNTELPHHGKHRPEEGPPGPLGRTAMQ
Method: The standard protocol for measuring SHIP inhibition activity was conducted as described in the materials section of Brooks, R., Fuhler, G. M., Iyer, S., Smith, M. J., Park, M. Y., Paraiso, K. H., Engelman, R. W., and Kerr, W. G., “SHIP1 inhibition increases immunoregulatory capacity and triggers apoptosis of hematopoietic cancer cells,” J Immunol 184:3582-3589 (2010), which is incorporated herein by reference, which protocol is described in pertinent part as follows: Malachite Green Assay was obtained from Echelon Biosciences. Malachite Green forms a colored complex with free phosphate liberated by the SHIP1, SHIP2, or PTEN enzyme reactions. The assay was performed according to manufacturer's protocol. The 3a-aminocholestane (3AC) was dissolved in 100% ethanol and used at a final concentration of 1 mM in the Malachite Green assay.

[1] = cited reference 3 of Example 22; cited from earlier work
[2] = 3-point bending test and microCT of femurs of 3AC treated mice; type: in vivo
Method: Mouse femurs were cleaned, wrapped in PBS-soaked gauze and frozen at […]. Femurs were rehydrated in a PBS solution at room temperature for 2 hours before testing. We employed a 3-point-bending test to assay the biomechanical properties of femurs treated with the 3AC inhibitor. Femurs were placed into a testing frame (1250 N Load Cell and a Q Test 1/L, MTS Systems Corp, Eden Prairie, Minn.), pre-loaded with 1 N and then loaded at 1 N/mm until failure. Prior to testing femurs were scanned using microCT to assay the geometric properties.

[3] = 3AC treatment of aged C57BL/6 mice, fasting blood glucose and insulin; type: in vivo; conditions: after 1 month treatment
Method: We noted that mutation of the SHIP1 paralog, SHIP2, also promotes resistance to diet-induced obesity and diabetes^2 We hypothesized then that treatment of adult or aging mice with a pan-SHIP1/2 inhibitor, 3AC^3,4, (SHIPi) might reduce body fat content. This was then tested by pulsatile SHIPi treatment of aged C57BL/6 mice that have begun to accumulate excess body fat and then assessing their body fat content via whole body DEXA imaging. […] This analysis confirmed that small molecule targetting of SHIP1/2 in vivo is a feasible approach to reverse the accumulation of excess body fat and glucose homeostasis during aging.

[4] = 3AC treatment of adult C57BL6/J mice (DEXA, microCT, serum ELISA); type: in vivo; conditions: vs vehicle, hydrochloride
immunoregulatory cells = experiment: Oral administration of K118 in mice, immunoregulatory cells by flow cytometry
[5] = K118/K189 treatment of 9-12 month old mice (Example 21); conditions: aged mice, 10 mg/kg i.p. two times per week, 4 weeks, hydrochloride
Excerpt: After one month we monitored body weight, % body fat and bone mineral density (BMD) in all groups.

[6] = Solubility in water / delivery solution; conditions: 100% H2O; hydrochloride
[7] = Pulsatile K118 treatment of aged male and female C57BL/6 mice (Example 22); type: in vivo
[8] = K118 treatment of DIO mice on high caloric diet (Example 22); type: in vivo
Method: ; As before K118 treatment was performed for one month. After K118 or vehicle treatment we examined weight, (FIG. 35A-C) food intake, (FIG. 35D) gross comparison of fat depots, (FIG. 35E) % body fat, (FIG. 35F) BMD and BMC (FIG. 38A,B). […]. (FIG. 35A,B) The vehicle group retained or increased their body mass during the one month study (FIG. 35C). The weight difference between the K118- and vehicle-treated mice was readily apparent upon visual examination of the mice (FIG. 35C). […]. Obesity is a complex metabolic disorder that predisposes individuals to several co-morbidities, such as type 2 diabetes mellitus. DIO mice are a well-studied model to of diet-related obesity and its leading co-morbidity, type 2 diabetes^12,13. […]. We measured fasting and ad libitum blood glucose and insulin levels and performed the intraperitoneal glucose tolerance test (IGTT) on fasted DIO mice. […]. After 1 month we examined fasting and ad libitum blood glucose, (FIG. 36A-B) fasting and ad libitum insulin, (FIG. 36C-D) the fasting and ad libitum insulin:glucose ratio, (FIG. 36E) and IGTT on fasted DIO mice (FIG. 36F). […]. (FIG. 36A-B). […].

[9] = K118/K189 treatment of DIO mice on high fat diet (Example 21); conditions: for % body fat: DIO mice on 60% fat diet, 10 mg/kg 2x/week, 1 month, vs pre-treatment
Excerpt: DIO mice are fed a diet that includes both high quantities of fat as well as sugar. […] DIO mice were purchased from Jackson labs at 12 weeks of age. […] After 1 month on the high fat diet we examined % body fat, (FIG. 28) weight, (FIG. 29) and BMD (FIG. 30).

[10] = aging C57BL/6 mice of both sexes, 2x/week, 10 mg/kg, 1 month

C[C@@]12CCC[C@H]1[C@@H]1CC[C@H]3C[C@H](N)CC[C@]3(C)[C@H]1CC2 [3A5AS, 3α-amino-5α-androstane]
concentration inducing a comparable MIR cell increase (MIR cell): 15 µM | potency at inducing MIR cell numbers (MIR cell; compared with 3AC): more potent | SHIP1 inhibitory activity (in words) (SHIP1): equally potent; also recorded: retains equal inhibitory activity

CC(C)CCC[C@@H](C)[C@H]1CC[C@H]2[C@@H]3CCC4C[C@H](N)CC[C@]4(C)[C@H]3CC[C@]12C.Cl (stereo partly drawn) [3AC, 3α-Aminocholestane hydrochloride]
concentration inducing a comparable MIR cell increase (MIR cell): 60 µM | aqueous solubility [1]: poor aqueous solubility | energy to fracture ([2]; 3-point bend): not observed to be significantly different | energy to peak ([2]; 3-point bend): not observed to be significantly different | decrease in the peak load ([2]; femurs of 3AC treated mice, 3-point bend, p<0.01): 15.4% | decrease in the stiffness ([2]; femurs of 3AC treated mice, 3-point bend, p<0.04): 21.6% | cortical thickness in the femurs ([2]; mid-shaft microCT): significant decreases | fasting blood glucose [3]: significant decrease | insulin [3]: significant decrease | whole-body BMD ([4]; DEXA, 25 mg/kg i.p. three times per week, 4, 8 and 16 weeks, 25 mg/kg): significantly reduces; also recorded: Significant decrease | percent body fat ([4]; DEXA, aging mice, 25 mg/kg three times per week, 25 mg/kg): significantly reduced; also recorded: Significant decrease | serum OPG ([4]; ELISA): significantly increases; also recorded: increased | serum RANKL ([4]; ELISA): decreased | bone mass (Bv/Tv) ([4]; microCT metaphysis, 25 mg/kg i.p. three times per week, 25 mg/kg): significantly reduces; also recorded: significantly decreased

C[C@@]12CCC[C@H]1[C@@H]1CC[C@H]3C[C@@H](N)CC[C@]3(C)[C@H]1CC2.Cl [K118, 3βAmino-5α-androstane hydrochloride]
oral bioavailability (immunoregulatory cells; delivered orally, 10 mg/kg, preliminary studies): bioavailable | neutrophil numbers (immunoregulatory cells; oral 10 mg/kg, hydrochloride, 10 mg/kg): trend for increased; also recorded: Increase | frequency of natural T regulatory cells (nTreg, CD4+CD25+FoxP3+) (immunoregulatory cells; spleen and mesenteric lymph node, oral 10 mg/kg): Significant increases | frequency of myeloid derived suppressor cells (MDSC, Gr1 and Mac1) (immunoregulatory cells; spleen, oral 10 mg/kg): significant increase | BMD [5]: does not significantly reduce | body fat [5]: quite effective at reducing; also recorded: reduces | body mass (weight) [5]: quite effective at reducing; also recorded: reduces | solubility in water [6]: water-soluble; also recorded: water soluble | morbidity or mortality ([7]; K118 treated mice): no significant morbidity or mortality | BMD ([7]; aged male and female mice, hydrochloride): does not significantly reduce; also recorded: does not affect | bone mineral content (BMC) ([7]; aged mice, one month pulsatile treatment, hydrochloride): normal bone density and mineral content; also recorded: does not affect | body fat [7, 10]: quite effective at reducing | body mass (weight) [7, 10]: quite effective at reducing | inflammation / lesions in lungs and small intestine (ileum) ([7]; histology, one month pulsatile treatment, hydrochloride): lacked any evidence of inflammation; also recorded: no significant lesions | BMD or BMC ([8]; C57BL6 mice on a HCD, hydrochloride): did not adversely impact; also recorded: does not affect | body weight ([8]; DIO mice on HCD, 2x/week, 10 mg/kg, one month, vs pre-treatment and vehicle): lost a significant amount of body weight | percent body fat ([8]; DIO mice, vs pre-treatment and vehicle): significantly lower | insulin:glucose ratio ([8]; DIO mice, vs vehicle): significant decrease | leptin production ([8]; HCD mice): reduced leptin production | total cholesterol levels in the serum ([8]; HCD mice): reduced total cholesterol levels | glucose tolerance (IGTT) ([8]; fasted DIO mice, vs vehicle): improved glucose tolerance | blood glucose levels ([8]; fasting and ad libitum, DIO mice, vs pre-treatment and vehicle): significantly reduced | serum insulin levels ([8]; fasting and ad libitum, DIO mice, vs vehicle): significantly lower | fat depot storage ([8]; gross comparison, DIO mice): visibly less fat depot storage | SHIP1 inhibitory activity (in words) (SHIP1; hydrochloride): comparable SHIP1 inhibitory activity; also recorded: significant SHIP1 inhibitory activity | inhibition at 1000 µM (SHIP1; at 1 mM, tested in triplicate): 59% | % body fat ([9]; hydrochloride): significantly lower; also recorded: reverses diet-induced obesity | weight gain ([9]; DIO mice on high fat diet, 1 month treatment, hydrochloride): did not significantly gain weight; also recorded: prevents diet-induced weight gain | body fat in individual mice ([9]; all K118 treated mice, one month): reduced body fat | mice that lost weight ([9]; individual mice of the K118 group, one month): 3 out of 4 | BMD ([9]; young mice on a high fat diet, hydrochloride): did not adversely impact; also recorded: does not cause a significant reduction

C[C@@]12CCC[C@H]1[C@@H]1CC[C@H]3C[C@@H](O)CC[C@]3(C)[C@H]1CC2 [K189, 3β-Hydroxy-5α-androstane, reference compound]
SHIP1 inhibitory activity (in words) (SHIP1): significant SHIP1 inhibitory activity is lost; also recorded: does not have significant SHIP1 inhibitory activity | % body fat [9]: did not show a significant reduction
